We go through 2 compounds from paper PMC7876106 (Scientific Reports, 2021).

Experiment [1] has as its system TeloDNA (HTRF assay) (DNA, G4) TTAGGGTTAGGGTTAGGGTTAGGG
The experiment is described as follows: HTRF, disruption of TRF2 peptide complex. The conditions noted are these: TRF2 GAR peptide displaced. In general terms: In TR-FRET formats the signal depends on donor and acceptor labels being close together.

In experiment [2] the test system is TERRA (unlabelled) (RNA, G4) UUAGGGUUAGGGUUAGGGUUAGGG
The experiment is described as follows: circular dichroism. The settings on record: 150 mM KCl; 20 mM HEPES pH 7.5, 20% PEG8000, 4 °C, 10 μM RNA, mixed 1:1 molar ratio. For orientation: CD spectra are sensitive to the conformation of chiral molecules.

Another experiment relates to TRF2-TERRA. The experiment is described as follows: HTRF assay, disruption of TERRA and TRF2 peptide interaction. Format: binding. The settings on record: compared to BRACO-19. The protocol: Mei et al, 2020 TERRA Requires TRF2 GAR Domain
Homogenous Time Resolved Fluorescence (HTRF) assay
All material including peptide, nucleic acids and compounds were dissolved in buffer containing 20mM HEPES pH7.5 150mM KCl. To measure the direct interaction between peptide and nucleic acids, 5µL of FITC-labeled TRF2 GAR peptide was added into each 384 well with a sequential of 2-fold dilution starting from 200nM, 5µL of 10nM biotin-labeled nucleic acid was then added into the well and fixed with the peptide, 5µL of buffer was added to make each well contain 15µL solution. The plate was incubated at room temperature for 30 minutes, following by adding 5µL of streptavidin-Tb-cryptate (Cisbio, PerkinElmer) and the plate was then incubated at room temperature for another 30 minutes before measured by EnVision plate reader (330/520 nm). To measure the compound disruption on peptide and nucleic acids, 5µL of small molecule was added into each 384 well first with a sequential of 2-fold dilution starting from 5µM, followed by 5µL of 10nM nucleic acid and 100nM peptide and then the plate was incubated at room temperature for 30 minutes. The rest step was similar to the direct binding measurement assay. The curves were analyzed using Prism 8.0. […]
Total RNA was isolated as previously described by using TRIzol reagent (Invitrogen) 1. […] RNA concentration was determined by Nanodrop-2000 (ThermoFisher). […]

In another experiment the test system is G4 telomere DNA. The experiment is described as follows: ChIP with BG4 antibody for G4 telomere DNA in LOX cells. The conditions noted are these: 2 μM, 2 days. The format is cell-based, human. How it is done: DNA ChIP assays was performed as described previously 3 with minor modifications. Briefly, 1 x 10^7 LOX cells treated with indicated chemicals (2 µM) for 48 hrs were subject to ChIP analysis and immunoprecipitated DNA was assayed by DNA dot-blot using 32P-labeled (TTAGGG)4 or Alu probe. […]

Experiment [3] relates to TERRA (HTRF assay) (RNA, G4) UUAGGGUUAGGGUUAGGGUUAGGG
Nature of the experiment: HTRF, disruption of TRF2 peptide complex. The conditions noted are these: TRF2 GAR peptide displaced.

On to `CN(C)c1ccc(Nc2c3ccc(NC(=O)CCN4CCCC4)cc3nc3cc(NC(=O)CCN4CCCC4)ccc23)cc1` [BRACO-19], for which, in experiment [1], the concentration for half-maximal inhibition (IC50) – broadly, the concentration at which inhibition is half-maximal – was found to be 7.00 ± 0.16 nM. This counts as single-digit nanomolar.
For `CCc1c(C)c2cc3nc(cc4nc(cc5c(CC)c(C)c(cc1[nH]2)n5C)C(C)=C4CCC(=O)O)C(CCC(=O)O)=C3C` [NMM, N-methyl mesoporphyrin IX], the binding entry in experiment [2] is on record as “yes”. In the experiment on TRF2-TERRA, the “inhibition of TRF2-TERRA by HTRF” value is reported as “preferential inhibition of TRF2-TERRA”. In the experiment on G4 telomere DNA, the “G4 telomere DNA (BG4 ChIP) relative to PP or PDS treated cells” value was “significant reduction in G4 telomere DNA”. This compound also gave an IC50 in experiment [3] of 1.7 ± 0.8 nM.
